# Peptide text beside a SMILES is read from it. * marks the point of attachment. X1 = CC1(C)C(/C=C/C2=C(Oc3ccc(S(=O)(=O)O)cc3)C(=C\C=C3/N(CCCCCC(=O)NCCN4C(=O)CC(*)C4=O)c4ccc(S(=O)(=O)O)cc4C3(C)C)/CCC2)=[N+](CCCCS(=O)(=O)O)c2ccc(S(=O)(=O)[O-])cc21
# Target: T1, Human αvβ6 (Homo sapiens, UniProt P06756+P18564)
# T1 construct: purchased Bio-Techne
# Assay: direct integrin binding assay of peptide-IRDye conjugates, human αvβ6-coated plates
# Details: plates coated with recombinant human αvβ6; conjugate 0.01-100 nM, 1 h; bound NIR fluorescence (Odyssey CLx); mean ± SE, n = 2 experiments
# Procedure: The affinity of peptide-IRDye conjugates for αvβ6 and αvβ8 integrins was determined by a direct binding assay using microtiter plates coated with αvβ6 or αvβ8 (Bio-Techne). After 1 h of incubation, the plates were washed; bound fluorescence was quantified by scanning the plates with an Odyssey CLx near-infrared fluorescence imaging system (LI-COR). […]
# The simplified molecular-input line-entry system (SMILES) of 5a-, 2a-, Cys- and 5a-Scr- […]
# The concentration of each conjugate was quantified by spectrophotometric analysis at 774 nm (molar absorption coefficient, 240,000 M-1, cm-1) (Figure S3B). The final yield of 5a-IRDye […]
# Binding of peptide-IRDye conjugates to avb6 and avb8 integrin
# The binding affinity of peptide-IRDye conjugates for human and murine avb6 and avb8 integrins was determined as follows: 96-well clear-bottom black microtiter plates (Corning® cat. 3601) were coated with 2 μg/ml avb6 or avb8 (50 µl/well), in Dulbecco’s phosphate-buffered saline containing Ca2+ and Mg2+ (DPBS) and left to incubate overnight at 4°C. […]
# conjugates were added to the microtiterplates and incubated at room temperature for 1 h (see Experimental Section). After washing, bound fluorescence was measured using an Odyssey CLx (LI-COR) scanner. Representative images of the scanned plates and quantification of binding are shown. […]
# T1 sequence (P06756 31-992 limits assumed): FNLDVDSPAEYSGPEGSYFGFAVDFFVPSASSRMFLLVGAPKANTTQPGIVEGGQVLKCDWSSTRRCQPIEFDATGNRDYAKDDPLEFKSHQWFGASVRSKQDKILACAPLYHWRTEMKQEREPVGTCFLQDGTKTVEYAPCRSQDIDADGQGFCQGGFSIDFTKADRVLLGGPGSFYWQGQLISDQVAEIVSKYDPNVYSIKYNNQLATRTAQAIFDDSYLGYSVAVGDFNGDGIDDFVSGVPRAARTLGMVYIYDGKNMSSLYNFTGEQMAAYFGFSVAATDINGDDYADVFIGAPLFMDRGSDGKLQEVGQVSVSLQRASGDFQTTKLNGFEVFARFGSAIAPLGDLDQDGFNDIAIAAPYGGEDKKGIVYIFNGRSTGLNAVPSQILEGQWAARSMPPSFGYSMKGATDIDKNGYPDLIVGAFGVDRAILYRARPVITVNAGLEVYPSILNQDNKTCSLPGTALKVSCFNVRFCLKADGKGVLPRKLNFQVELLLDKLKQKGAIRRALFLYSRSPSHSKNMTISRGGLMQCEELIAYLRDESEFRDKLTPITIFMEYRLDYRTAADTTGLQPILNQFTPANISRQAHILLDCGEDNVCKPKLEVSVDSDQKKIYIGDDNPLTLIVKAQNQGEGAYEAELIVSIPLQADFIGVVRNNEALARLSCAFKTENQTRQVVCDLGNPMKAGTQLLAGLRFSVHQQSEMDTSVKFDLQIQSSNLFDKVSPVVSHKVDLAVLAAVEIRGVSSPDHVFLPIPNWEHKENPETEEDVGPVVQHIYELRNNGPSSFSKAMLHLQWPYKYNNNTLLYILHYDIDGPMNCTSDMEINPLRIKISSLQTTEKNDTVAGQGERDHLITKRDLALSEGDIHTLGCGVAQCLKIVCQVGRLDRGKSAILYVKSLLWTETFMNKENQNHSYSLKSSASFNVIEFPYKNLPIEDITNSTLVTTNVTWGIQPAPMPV
# T1 sequence (P18564 22-707 limits assumed): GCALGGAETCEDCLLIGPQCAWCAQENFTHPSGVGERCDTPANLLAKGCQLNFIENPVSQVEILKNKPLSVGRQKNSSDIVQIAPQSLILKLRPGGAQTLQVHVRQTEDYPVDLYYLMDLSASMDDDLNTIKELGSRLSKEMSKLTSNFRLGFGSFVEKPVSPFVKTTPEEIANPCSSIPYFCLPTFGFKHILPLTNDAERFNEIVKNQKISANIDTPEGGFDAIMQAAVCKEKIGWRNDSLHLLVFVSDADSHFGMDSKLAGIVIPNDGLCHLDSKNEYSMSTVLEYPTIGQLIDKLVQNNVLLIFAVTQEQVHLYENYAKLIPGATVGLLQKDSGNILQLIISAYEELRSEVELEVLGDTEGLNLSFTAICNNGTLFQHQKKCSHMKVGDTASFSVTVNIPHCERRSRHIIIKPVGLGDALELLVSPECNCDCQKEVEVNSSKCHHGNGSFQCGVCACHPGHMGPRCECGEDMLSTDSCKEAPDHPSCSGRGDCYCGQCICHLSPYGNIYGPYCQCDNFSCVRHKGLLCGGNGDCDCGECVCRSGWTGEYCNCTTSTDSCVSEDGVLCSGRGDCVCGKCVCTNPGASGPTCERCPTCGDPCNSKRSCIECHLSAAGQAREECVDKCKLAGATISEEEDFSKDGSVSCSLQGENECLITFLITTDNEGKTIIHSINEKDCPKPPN
row,SMILES,EC50 [nM]
1,CC1(C)C(/C=C/C2=C(Oc3ccc(S(=O)(=O)O)cc3)C(=C\C=C3/N(CCCCCC(=O)NCCN4C(=O)CC(SC[C@H](N)C(=O)O)C4=O)c4ccc(S(=O)(=O)O)cc4C3(C)C)/CCC2)=[N+](CCCCS(=O)(=O)O)c2ccc(S(=O)(=O)[O-])cc21 (some centres unmarked) [Cys-IRDye],> 100
2,CC[C@H](C)[C@H](NC(=O)[C@H](CCCNC(=N)N)NC(=O)[C@H](CCC(=O)O)NC(=O)[C@H](CCC(=O)O)NC(=O)CNC(=O)[C@H](CCCNC(=N)N)NC(=O)[C@H](CC(C)C)NC(=O)[C@@H](NC(=O)[C@H](CCC(=O)O)NC(=O)[C@H](Cc1ccccc1)NC(=O)[C@@H](N)CSC1CC(=O)N(CCNC(=O)CCCCCN2/C(=C\C=C3\CCCC(/C=C/C4=[N+](CCCCS(=O)(=O)O)c5ccc(S(=O)(=O)[O-])cc5C4(C)C)=C3Oc3ccc(S(=O)(=O)O)cc3)C(C)(C)c3cc(S(=O)(=O)O)ccc32)C1=O)[C@@H](C)O)C(=O)N[C@@H](CC(C)C)C(=O)N[C@@H](CO)C(=O)N[C@H](C(=O)N[C@@H](CC(C)C)C(=O)N[C@@H](CCCNC(=N)N)C(=O)N[C@@H](Cc1c[nH]cn1)C(=O)N[C@@H](CCC(N)=O)C(=O)N[C@@H](CC(N)=O)C(=O)N[C@@H](CC(C)C)C(=O)N[C@@H](CC(C)C)C(=O)N[C@@H](CCCCN)C(=O)N[C@@H](CCC(=O)O)C(=O)N[C@@H](CC(C)C)C(=O)N[C@@H](CCC(N)=O)C(=O)N[C@@H](CC(=O)O)C(N)=O)[C@@H](C)CC (some centres unmarked) [2a-IRDye] (H-C(X1)FETLRGEERILSILRHQNLLKELQD-NH2),> 100

# Source: paper PMC9760430, “A stapled chromogranin A-derived peptide homes in on tumors that express αvβ6 or αvβ8 integrins” (International Journal of Biological Sciences, 2023)
